Experimental data reported in paper PMC4208844 (PLoS ONE, 2014).

Tests used:
CYP3A4/5 = CYP3A4/5 catalytic activity, testosterone 6β-hydroxylation in human liver microsomes; settings: pH 7.4, probe testosterone (6β-hydroxylation)
[1] = MTT cytotoxicity test in LS174T cells; settings: human
Method: (§1) A transiently transfected LS174T human colon adenocarcinoma cells were used for assessment of PXR transcriptional activity. […] The reporter plasmid was transiently transfected to LS174T cells by lipofection (FuGENE 6). Cells were incubated for 24 h with tested compounds and/or vehicle (DMSO; 0.1% v/v), in the presence or absence of RIF (10 µM; LS174T cells). After the treatments, cells were lysed and luciferase activity was measured. In parallel, cell viability was determined by conventional MTT test [MTT = 3-(4,5-dimethylthiazol-2-yl)-2,5-diphenyltetrazolium bromide]; briefly: After the treatment, culture medium was replaced with fresh one and 100 µL of MTT reagent (5 mg/mL PBS) was added. Three hours later, the medium was removed, and cells were washed with PBS and lysed for 5 min with 1 mL of DMSO containing 1% ammonia. The lysate was diluted 20 times with DMSO (+1% ammonia) and absorbance at 540 nm was measured against blank (DMSO+1% ammonia) (TECAN, Schoeller Instruments LLC). Results were normalized to the control value (i.e. 100×A sample/A control) and expressed as percentage of control.

CYP3A4 protein = CYP3A4 protein expression (Western blot) in HepG2 cells; type: cell-based, human; settings: 48 h
Method: Human colon adenocarcinoma cells LS174T (ECACC No. 87060401) and human hepatocellular carcinoma cells HepG2 (ECACC No. 85011430) were purchased from ECACC and were cultured in as recommended by manufacturer. Primary human hepatocytes used in this study were obtained from two sources: (i) from multiorgan donors HH52 and […] (male; 71 years); the use of liver cells of donors HH52 and HH54 was approved by “Ethical committee at the Faculty Hospital Olomouc”, and it was in accordance with Transplantation law #285/2002 Sb; “Ethical committee at the Faculty Hospital Olomouc” waived the authors from obtaining consent from the next of kin, regarding human hepatocytes obtained from liver donors HH52 and HH54. (ii) long-term human hepatocytes in monolayer Batch HEP220770 (person) were purchased from Biopredic International (Biopredic International, Rennes, France). Cells were cultured in serum-free medium. Cultures were maintained at 37°C and 5% CO2 in a humidified incubator.
Total protein extracts were prepared as described elsewhere. SDS-PAGE gels (10%) were run according to the general procedure followed by the protein transfer onto PVDF membrane. The membrane was saturated with 5% non-fat dried milk. […] The density of bands was measured by densitometry.

LS174T cells = assay: MTT cytotoxicity test in LS174T cells; settings: read-out: MTT test IC50 (cytotoxicity); LS174T cells; 24 h incubation
Method: as §1

pregnane X receptor PXR = target: T1, pregnane X receptor PXR (Homo sapiens, UniProt O75469); settings: read-out: PXR antagonist IC50; transfected LS174T cells; 24 h; in the presence of RIF (10 µM)
T1 sequence (O75469 1-434): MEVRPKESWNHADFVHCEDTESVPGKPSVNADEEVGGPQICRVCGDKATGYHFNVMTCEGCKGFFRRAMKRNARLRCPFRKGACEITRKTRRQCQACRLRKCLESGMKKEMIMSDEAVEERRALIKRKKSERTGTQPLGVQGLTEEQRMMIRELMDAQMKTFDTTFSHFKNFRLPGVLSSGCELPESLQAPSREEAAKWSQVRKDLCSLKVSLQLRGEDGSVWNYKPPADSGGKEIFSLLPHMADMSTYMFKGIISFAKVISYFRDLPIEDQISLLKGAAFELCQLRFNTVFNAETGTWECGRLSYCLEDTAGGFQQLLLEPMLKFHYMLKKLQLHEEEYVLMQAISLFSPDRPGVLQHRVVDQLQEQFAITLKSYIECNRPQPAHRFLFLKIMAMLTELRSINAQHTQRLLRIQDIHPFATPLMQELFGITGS

Row | Structure (SMILES) | activity at 10 µM (CYP3A4/5) [%] | IC50 at 24 h [1] [µM] | CYP3A4 protein induction (in words) (CYP3A4 protein) | IC50 (LS174T cells) [µM] | IC50 (pregnane X receptor PXR) [µM]
1 | CC(=O)N1CCN(c2ccc(OCC3COC(Cn4ccnc4)(c4ccc(Cl)cc4Cl)O3)cc2)CC1 (racemic) [(rac)-KET, ketoconazole] | 3 | 50.3 | did not find convincing induction |  | 
2 | CC(=O)N1CCN(c2ccc(OC[C@H]3CO[C@](Cn4ccnc4)(c4ccc(Cl)cc4Cl)O3)cc2)CC1 [(+)-KET, (2R,4S)-(+)-KET] |  |  |  | 52.7 | 41.2
3 | CC(=O)N1CCN(c2ccc(OC[C@@H]3CO[C@@](Cn4ccnc4)(c4ccc(Cl)cc4Cl)O3)cc2)CC1 [(−)-KET, (2S,4R)-(−)-KET] |  | 57.5 |  |  | 
